Test results: US9347057B2, “Methods for efficient, expansive user-defined DNA mutagenesis” (THE JOHNS HOPKINS UNIVERSITY, priority 2012, dated 2016)

What was measured:
Assay type in all cases: cell-based, E. coli
Conditions in all cases: Escherichia coli
TEM-1 Y105N allele = assay: MIC assay on agar plates, TEM-1 allele Y105N
Experimental: (§1) Selected single base mutations were re-introduced into TEM-1 by site-directed PFunkel mutagenesis on the 20 μL volume scale. The MIC for ampicillin and piperacillin of the mutants was assessed with and without 6 μg/mL tazobactam by spotting 10^4 CFU on Mueller-Hinton agar plates containing 50 μg/mL Spec, 300 μM IPTG, and √2-fold increments of either ampicillin or piperacillin. Plates were incubated at 37° C. for 12 hrs.

TEM-1 Y105S allele = assay: MIC assay on agar plates, TEM-1 allele Y105S
Experimental: as §1

TEM-1 M69L allele = assay: MIC assay on agar plates, TEM-1 allele M69L
Experimental: as §1

TEM-1 Y105D allele = assay: MIC assay on agar plates, TEM-1 allele Y105D
Experimental: as §1

TEM-1 N276D allele = assay: MIC assay on agar plates, TEM-1 allele N276D
Experimental: as §1

TEM-1 S235T allele = assay: MIC assay on agar plates, TEM-1 allele S235T
Experimental: as §1

TEM-1 R244S allele = assay: MIC assay on agar plates, TEM-1 allele R244S
Experimental: as §1

[1] = tested on: wildtype TEM-1 (allele: none); assay: MIC assay on agar plates, cells with TEM-1 (no mutation)
Experimental: as §1

[2] = + tazobactam 6 μg/mL, median of three replicates
[3] = + tazobactam 6 μg/mL, replicate 1
[4] = + tazobactam 6 μg/mL, replicate 2
[5] = + tazobactam 6 μg/mL, replicate 3
[6] = − tazobactam, median of three replicates

Compound `CC1(C)S[C@@H]2[C@H](NC(=O)[C@H](N)c3ccccc3)C(=O)N2[C@H]1C(=O)O` [ampicillin] has an MIC (TEM-1 Y105N allele; [2]) of 1450 mg/L, an MIC (TEM-1 Y105N allele; [3]) of 148 mg/L and an MIC (TEM-1 Y105N allele; [4]) of 1450 mg/L. It also gave an MIC (TEM-1 Y105N allele; [5]) of 1450 mg/L, an MIC (TEM-1 Y105N allele; [6]) of 5790 mg/L and an MIC (TEM-1 Y105N allele; − tazobactam, replicate 1) of 4100 mg/L. For the same compound, the MIC (TEM-1 Y105N allele; − tazobactam, replicate 2) was 5790 mg/L, the MIC (TEM-1 Y105N allele; − tazobactam, replicate 3) was 5790 mg/L and the MIC (TEM-1 Y105S allele; [2]) was 1020 mg/L. The MIC (TEM-1 Y105S allele; [3]) was 724 mg/L, the MIC (TEM-1 Y105S allele; [4]) was 1020 mg/L and the MIC (TEM-1 Y105S allele; [5]) was 1020 mg/L. It also gave an MIC (TEM-1 Y105S allele; [6]) of 2900 mg/L, an MIC (TEM-1 Y105S allele; − tazobactam, replicate 1) of 2900 mg/L and an MIC (TEM-1 Y105S allele; − tazobactam, replicate 2) of 2900 mg/L. It also gave an MIC (TEM-1 Y105S allele; − tazobactam, replicate 3) of 2900 mg/L, an MIC (TEM-1 M69L allele; [2]) of 724 mg/L and an MIC (TEM-1 M69L allele; [3]) of 512 mg/L. It also gave an MIC (TEM-1 M69L allele; [4]) of 724 mg/L, an MIC (TEM-1 M69L allele; [5]) of 724 mg/L and an MIC (TEM-1 M69L allele; [6]) of 8190 mg/L. It also gave an MIC (TEM-1 M69L allele; − tazobactam, replicate 1) of 5790 mg/L, an MIC (TEM-1 M69L allele; − tazobactam, replicate 2) of 8190 mg/L and an MIC (TEM-1 M69L allele; − tazobactam, replicate 3) of 8190 mg/L. The MIC (TEM-1 Y105D allele; [2]) was 256 mg/L, the MIC (TEM-1 Y105D allele; [3]) was 256 mg/L and the MIC (TEM-1 Y105D allele; [4]) was 256 mg/L. For the same compound, the MIC (TEM-1 Y105D allele; [5]) was 362 mg/L, the MIC (TEM-1 Y105D allele; [6]) was 1450 mg/L and the MIC (TEM-1 Y105D allele; − tazobactam, replicate 1) was 1450 mg/L. It also gave an MIC (TEM-1 Y105D allele; − tazobactam, replicate 2) of 1450 mg/L, an MIC (TEM-1 Y105D allele; − tazobactam, replicate 3) of 1450 mg/L and an MIC (TEM-1 N276D allele; [2]) of 90.5 mg/L. It also gave an MIC (TEM-1 N276D allele; [3]) of 90.5 mg/L, an MIC (TEM-1 N276D allele; [4]) of 90.5 mg/L and an MIC (TEM-1 N276D allele; [5]) of 128 mg/L. It also gave an MIC (TEM-1 N276D allele; [6]) of 8190 mg/L, an MIC (TEM-1 N276D allele; − tazobactam, replicate 1) of 8190 mg/L and an MIC (TEM-1 N276D allele; − tazobactam, replicate 2) of 8190 mg/L. It also gave an MIC (TEM-1 N276D allele; − tazobactam, replicate 3) of 8190 mg/L, an MIC (TEM-1 S235T allele; [2]) of 362 mg/L and an MIC (TEM-1 S235T allele; [3]) of 256 mg/L. For the same compound, the MIC (TEM-1 S235T allele; [4]) was 362 mg/L, the MIC (TEM-1 S235T allele; [5]) was 512 mg/L and the MIC (TEM-1 S235T allele; [6]) was 8190 mg/L. The MIC (TEM-1 S235T allele; − tazobactam, replicate 1) was 8190 mg/L, the MIC (TEM-1 S235T allele; − tazobactam, replicate 2) was 8190 mg/L and the MIC (TEM-1 S235T allele; − tazobactam, replicate 3) was 8190 mg/L. It also gave an MIC (TEM-1 R244S allele; [2]) of 90.5 mg/L, an MIC (TEM-1 R244S allele; [3]) of 64 mg/L and an MIC (TEM-1 R244S allele; [4]) of 128 mg/L. The MIC (TEM-1 R244S allele; [5]) was 90.5 mg/L, the MIC (TEM-1 R244S allele; [6]) was 4100 mg/L and the MIC (TEM-1 R244S allele; − tazobactam, replicate 1) was 2900 mg/L. The MIC (TEM-1 R244S allele; − tazobactam, replicate 2) was 4100 mg/L, the MIC (TEM-1 R244S allele; − tazobactam, replicate 3) was 4100 mg/L and the MIC [1, 2] was 22.6 mg/L. For the same compound, the MIC [1, 3] was 16 mg/L, the MIC [1, 4] was 22.6 mg/L and the MIC [1, 5] was 22.6 mg/L. It also gave an MIC [1, 6] of 8190 mg/L, an MIC ([1]; − tazobactam, replicate 1) of 8190 mg/L and an MIC ([1]; − tazobactam, replicate 2) of 8190 mg/L. It also gave an MIC ([1]; − tazobactam, replicate 3) of 8190 mg/L.

With `CCN1CCN(C(=O)N[C@@H](C(=O)N[C@@H]2C(=O)N3[C@@H]2SC(C)(C)[C@@H]3C(=O)O)c2ccccc2)C(=O)C1=O` [piperacillin] the MIC (TEM-1 Y105N allele; [2]) was 45 mg/L, the MIC (TEM-1 Y105N allele; [3]) was 32 mg/L and the MIC (TEM-1 Y105N allele; [4]) was 45 mg/L. It also gave an MIC (TEM-1 Y105N allele; [5]) of 45 mg/L, an MIC (TEM-1 Y105N allele; [6]) of 2050 mg/L and an MIC (TEM-1 Y105N allele; − tazobactam, replicate 1) of 2050 mg/L. For the same compound, the MIC (TEM-1 Y105N allele; − tazobactam, replicate 2) was 2050 mg/L, the MIC (TEM-1 Y105N allele; − tazobactam, replicate 3) was 2050 mg/L and the MIC (TEM-1 Y105S allele; [2]) was 16 mg/L. It also gave an MIC (TEM-1 Y105S allele; [3]) of 16 mg/L, an MIC (TEM-1 Y105S allele; [4]) of 16 mg/L and an MIC (TEM-1 Y105S allele; [5]) of 16 mg/L. It also gave an MIC (TEM-1 Y105S allele; [6]) of 1450 mg/L, an MIC (TEM-1 Y105S allele; − tazobactam, replicate 1) of 1020 mg/L and an MIC (TEM-1 Y105S allele; − tazobactam, replicate 2) of 1450 mg/L. It also gave an MIC (TEM-1 Y105S allele; − tazobactam, replicate 3) of 1450 mg/L, an MIC (TEM-1 M69L allele; [2]) of 22.6 mg/L and an MIC (TEM-1 M69L allele; [3]) of 22.6 mg/L. It also gave an MIC (TEM-1 M69L allele; [4]) of 32 mg/L, an MIC (TEM-1 M69L allele; [5]) of 22.6 mg/L and an MIC (TEM-1 M69L allele; [6]) of 2900 mg/L. It also gave an MIC (TEM-1 M69L allele; − tazobactam, replicate 1) of 2050 mg/L, an MIC (TEM-1 M69L allele; − tazobactam, replicate 2) of 2900 mg/L and an MIC (TEM-1 M69L allele; − tazobactam, replicate 3) of 2900 mg/L. It also gave an MIC (TEM-1 Y105D allele; [2]) of 1 mg/L, an MIC (TEM-1 Y105D allele; [3]) of 1 mg/L and an MIC (TEM-1 Y105D allele; [4]) of 1 mg/L. For the same compound, the MIC (TEM-1 Y105D allele; [5]) was 1 mg/L, the MIC (TEM-1 Y105D allele; [6]) was 1.4 mg/L and the MIC (TEM-1 Y105D allele; − tazobactam, replicate 1) was 1.4 mg/L. The MIC (TEM-1 Y105D allele; − tazobactam, replicate 2) was 1.4 mg/L, the MIC (TEM-1 Y105D allele; − tazobactam, replicate 3) was 1.4 mg/L and the MIC (TEM-1 N276D allele; [2]) was 1.4 mg/L. It also gave an MIC (TEM-1 N276D allele; [3]) of 1 mg/L, an MIC (TEM-1 N276D allele; [4]) of 1.4 mg/L and an MIC (TEM-1 N276D allele; [5]) of 2 mg/L. For the same compound, the MIC (TEM-1 N276D allele; [6]) was 2900 mg/L, the MIC (TEM-1 N276D allele; − tazobactam, replicate 1) was 2900 mg/L and the MIC (TEM-1 N276D allele; − tazobactam, replicate 2) was 2900 mg/L. It also gave an MIC (TEM-1 N276D allele; − tazobactam, replicate 3) of 2900 mg/L, an MIC (TEM-1 S235T allele; [2]) of 22.6 mg/L and an MIC (TEM-1 S235T allele; [3]) of 32 mg/L. The MIC (TEM-1 S235T allele; [4]) was 16 mg/L, the MIC (TEM-1 S235T allele; [5]) was 22.6 mg/L and the MIC (TEM-1 S235T allele; [6]) was 2900 mg/L. The MIC (TEM-1 S235T allele; − tazobactam, replicate 1) was 2900 mg/L, the MIC (TEM-1 S235T allele; − tazobactam, replicate 2) was 2900 mg/L and the MIC (TEM-1 S235T allele; − tazobactam, replicate 3) was 2900 mg/L. For the same compound, the MIC (TEM-1 R244S allele; [2]) was 2 mg/L, the MIC (TEM-1 R244S allele; [3]) was 2 mg/L and the MIC (TEM-1 R244S allele; [4]) was 2.83 mg/L. For the same compound, the MIC (TEM-1 R244S allele; [5]) was 2 mg/L, the MIC (TEM-1 R244S allele; [6]) was 1450 mg/L and the MIC (TEM-1 R244S allele; − tazobactam, replicate 1) was 1020 mg/L. It also gave an MIC (TEM-1 R244S allele; − tazobactam, replicate 2) of 1450 mg/L, an MIC (TEM-1 R244S allele; − tazobactam, replicate 3) of 1450 mg/L and an MIC [1, 2] of 1.4 mg/L. The MIC [1, 3] was 1 mg/L, the MIC [1, 4] was 1.4 mg/L and the MIC [1, 5] was 1.4 mg/L. The MIC [1, 6] was 2900 mg/L, the MIC ([1]; − tazobactam, replicate 1) was 2900 mg/L and the MIC ([1]; − tazobactam, replicate 2) was 2900 mg/L. It also gave an MIC ([1]; − tazobactam, replicate 3) of 2900 mg/L.
